Assay results as given in US12605403B2, “Compositions and methods for treating transient biofilms” (WIAB WATER INNOVATION AB, priority 2016, dated 2026).

Columns and labels:
Escherichia coli = assay: hand disinfection test, transient bacteria on hands of subjects (Handrub procedure PN-EN 1500:2013-07); format: in vivo; conditions: 18 subjects, E. coli on hands, hand rub
Protocol: Tests were performed on the hands of healthy subjects to determine the transient bacteria killing effect of the disclosed compositions. The subjects washed their hands, and dipped their fingertips into Escherichia coli. The disclosed compositions were applied to the subjects' hands by rubbing the disclosed compositions into the skin to stimulate the removal of the transient bacteria on the skin. The same test was performed using prior art alcohol compositions.
Tests were performed on the hands of healthy subjects to determine the transient bacteria killing effect of the disclosed compositions.
In this experiment, 18 subjects washed their hands, and dipped their fingertips into a solution of Escherichia coli. Once the subjects' hands were dry, aliquots of the disclosed composition (5 mL of 160 ppm HOCl, 0.13% Hac) were applied to the subjects' dry hands and rubbed into the skin for 30 to stimulate the removal of the transient bacteria on the skin, according to Handrub procedure PN-EN 1500:2013-07.

natural bacteria = assay: hand and forearm rub test, effect on natural bacteria of the skin (Handrub procedure PN-EN 12791:2005); format: in vivo; conditions: hands of 20 subjects
Protocol: In another experiment aliquots of the disclosed composition (3 mL of 0.03% HOCl, 0.13% Hac) were applied to each of the hands of 20 subjects. […] The composition was rubbed into the hands and forearms for 5 minutes to maintain exposure to the compositions according to Handrub procedure PN-EN 12791:2005.
Bacteria kills of Escherichia coli, Pseudomonas aeruginosa, Staphylococcus areus, and Enterococcus hirae were measured immediately after the application and again 3 hours after application.

Structure (SMILES)	reduction of the presence of the transient bacteria (Escherichia coli)	reduction of the natural bacteria (natural bacteria; 3 hours after application)	reduction of the natural bacteria (natural bacteria; immediately after application)
CC(C)O [2-propanol 60% v/v, 2-propanol]	4 log	–	–
CCCO [propan-1-ol, 60% v/v, propan-1-ol]	–	2.16 log	2.48 log
